In data set [1] the test system is excitatory amino acid (EAA) receptor. The conditions noted are these: J. Neurochem., 52, 1319-1328, 1989; cited from earlier work.
The subject of data set [2] is glycine modulatory site of the N-methyl-D-aspartate (NMDA) receptor complex. The conditions noted are these: J. Neurochem., 52, 1319-1328, 1989; cited from earlier work.
The target in data set [3] is T1, KAT (partially purified enzyme preparation) (Rattus norvegicus, UniProt Q08415).
T1 construct: a preparation of partially purified enzyme in a total volume of 0.1 ml; from tissue
T1 sequence (Q08415 1-423): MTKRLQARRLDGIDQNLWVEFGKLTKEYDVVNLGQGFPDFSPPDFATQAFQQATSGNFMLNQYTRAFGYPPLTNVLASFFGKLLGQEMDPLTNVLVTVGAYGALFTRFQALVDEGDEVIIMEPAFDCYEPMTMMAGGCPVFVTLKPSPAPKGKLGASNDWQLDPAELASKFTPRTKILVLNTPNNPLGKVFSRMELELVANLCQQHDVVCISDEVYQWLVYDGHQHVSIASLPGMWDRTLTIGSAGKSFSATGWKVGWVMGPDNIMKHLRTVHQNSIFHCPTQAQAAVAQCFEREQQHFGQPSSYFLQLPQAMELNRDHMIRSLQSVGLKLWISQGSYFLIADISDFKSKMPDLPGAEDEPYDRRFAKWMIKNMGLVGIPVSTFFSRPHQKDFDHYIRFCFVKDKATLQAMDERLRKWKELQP
Put plainly: Kinetic analysis of KAT inhibitors using a partially purified enzyme preparation. The data set is classed as biochemical. The conditions noted are these: KYN varied 2 μM to 2 mM, 1 mM pyruvate, pH 8.0, 2 h at 37° C., double reciprocal plots. Here is the method: C) Kinetic analysis of KAT inhibitors using a partially purified enzyme preparation (Brain Research, 534, 37-44 (9)
The reaction mixture contained [^3 H]KYN (30 nCi), diluted with unlabelled KYN to yield a final concentration of 2 μM, 1 mM pyruvate, 70 μM pyridoxal 5'-phosphate, 150 mM Tris-acetate buffer, pH 8.0, and a preparation of partially purified enzyme in a total volume of 0.1 ml. Test compounds were included in the incubation mixture as needed. The reaction was started by the addition of pyruvate. After incubation for 2 h at 37° C., the reaction was terminated by the addition of 14 μl of 50% (w/w) trichloroacetic acid. Subsequently, 1 ml of 0.1M HCl was added and denaturated protein was removed by a 4-min centrifugation in a Beckman 52 B microfuge. 1 ml of the resulting supernatant was applied to a Dowex 50 W column (0.5×1.0 cm; H^+ form) and washed with 1 ml of 0.1M HCl, followed by 1 ml of distilled water. [^3 H]KYNA was eluted with 2 ml of distilled water and quantitated by liquid scintillation spectrometry. Enzyme measurements were performed in triplicate samples. Blanks were obtained by using an enzyme preparation which had been heat-deactivated for 10 min in a boiling water bath. […] Double reciprocal plots were constructed and lines of best fit were determined by linear regression analysis.

In data set [4] the target is Kynurenine Aminotransferase (KAT). In words: Determination of KAT activity inhibition in rat brain homogenate. It counts as biochemical. The conditions noted are these: 2 μM [3H]KYN, 2 h at 37° C., pH 8.0, read-out: ID50 (inhibition of KAT enzyme activity). From the text: (§1) Compounds which act as KAT inhibitors may be identified using standard test, for example, measuring their ability to inhibit KAT activity in rat brain homogenate as described, for example, in J. Neurochem., 57, 533-540 (1991) or their inhibitory effect on Kynurenic Acid (KYNA) production by rat brain slices as described, for example, in J. Neurochem., 52, 1629-1636 (1989). KAT catalyzes the biosynthesis of KYNA from Kynurenine (KYN): [drawing 2] and it is singularly responsible for the regulation of extracellular KYNA concentrations in the brain (J. Neurochem., 57, 533-540, 1991).
A) Determination of KAT activity inhibition in rat brain homogenate
KAT was measured as described in detail by Okuno et al. (Measurement of rat brain kynurenine aminotransferase at physiological kynurenine concentrations, J. Neurochem., 57, 533-540, 1991).
Briefly, animals were killed by decapitation and the brain tissue was homogenized (1:5 v/w in 5 mM Trisacetate buffer, pH 8.0, containing 10 mM 2-mercaptoethanol and 50 μM pyridoxal 5'-phosphate) and incubated for 2 h at 37° C. in the presence of 2 μM [^3 H]KYN (30 nCi), 1 mM 2-oxoglutarate and 70 μM pyridoxal 5'-phosphate in 150 mM Tris-acetate buffer, pH 8.0. […]
Newly synthesized [^3 H]KYNA was separated from [^3 H]KYN on a Dowex 50 W cation-exchange column and quantitated by liquid scintillation spectrometry. […]

Data set [5] deals with KYNA production by rat tissue slices. Put plainly: Determination of inhibition of KYNA production by rat tissue slices (cerebral cortex). It counts as cell-based. Particulars: 50 μM L-KYN, 2 h at 37° C., pH 7.4.
Source text: as §1
B) Determination of inhibition of KYNA production by rat tissue slices
Routinely, slices (base 1×1 mm; weight ≈1.5 mg/slice) from the cerebral cortex were separated on ice and transferred to culture wells (10 slices/well) containing 1 ml of oxygenated Krebs-Ringer buffer (NaCl, 118.5 mM; KCl, 4.75 mM; CaCl 2, 1.77 mM; MgSO4, 1.18 mM; NaH2 PO4, 12.9 mM; NaH2 PO4, 3 mM; glucose, 5mM; pH 7.4). Subsequently, the tissue was preincubated for 10 min at 37° C. and incubated further for 2 h at 37° C., in the presence of 50 μM L-KYN in an oxygenated chamber, on a shaking water bath. Compounds of the present invention were included in the incubation mixture as needed. Following incubation, the culture wells were immediately placed on ice, and the slices were rapidly separated from the incubation medium.
For KYNA determination, 1 ml samples of the incubation medium were immersed in a boiling water bath for 10 min, and the precipitated proteins were removed by centrifugation (8,730× g, 10 min). The supernatants were diluted (1:1, v/v) with 0.2M HCl and applied to Dowex 50 W (hydrogen form, Sigma) cation-exchange columns (0.5×2 cm). Subsequently, the columns were washed with 1 ml of 0.1M HCl and 1 ml of water, and the fraction containing KYNA was eluted with 2 ml of water. The eluates were applied to a 3-μm C18 HPLC column (100×3.2 internal diameter, Bioanalytical Systems, West Lafayette, Ind., U.S.A.), and KYNA was isocratically eluted with a mobile phase containing 50 mM ammonium acetate and 5% methanol at a flow rate of 0.5 ml/min. Under these conditions, the retention time of KYNA was ≈7 min.
Data were recorded and calculated with a Hewlett-Packard 3390A integrator connected to a model 160 UV absorbance detector (Beckman Instruments, Berkeley, Calif., U.S.A.) set at 340 nm.
In this assay, (D,L)-2-amino-4-(2-amino-5-chlorophenyl)-4-oxo butyric acid, also known as D,L-5-chloro-kynurenine, was tested with the following results: […]

Substrate in data set [6]: Nc1ccccc1C(=O)C[C@H](N)C(=O)O
Put plainly: purified protein, by the assay type. Particulars: other: substrate KYN varied 2 μM to 2 mM, 1 mM pyruvate, pH 8.0, 2 h at 37° C., double reciprocal plots.

As for `O=C(O)c1cc(=O)c2ccccc2[nH]1` [KYNA, Kynurenic Acid], in data set [1], the “excitatory amino acid (EAA) receptor antagonism” value is listed as “effective excitatory amino acid (EAA) receptor antagonist”. Also, in data set [2], the “affinity to the glycine modulatory site of the NMDA receptor complex” value is reported as “particularly high affinity”.
By Ki is commonly meant a measure of affinity in units of concentration, obtained from inhibition or displacement. Broadly, the inhibition is how much of the control response was suppressed. Low values mean little suppression, high ones strong suppression. The molecule `Nc1ccc(Cl)cc1C(=O)CC(N)C(=O)O` (racemic) [Example 3, 2-amino-4-(2-amino-5-chlorophenyl)-4-oxo-butyric acid] registered a Ki in data set [3] of 88 µM. For the same molecule, in data set [4], the IC50 is 78 µM. Besides, the inhibition at 25 µM in data set [5] (25 μM compound) came out at 33%. In data set [5] (50 μM compound), this molecule returned an inhibition at 50 µM of 39%. Moreover, the inhibition at 100 µM in data set [5] (100 μM compound) was found to be 56%. Also, the inhibition at 250 µM in data set [5] (250 μM compound) amounted to 66%.

B1: KAT (partially purified enzyme preparation) (Rattus norvegicus) (protein)
chain: MTKRLQARRLDGIDQNLWVEFGKLTKEYDVVNLGQGFPDFSPPDFATQAFQQATSGNFMLNQYTRAFGYPPLTNVLASFFGKLLGQEMDPLTNVLVTVGAYGALFTRFQALVDEGDEVIIMEPAFDCYEPMTMMAGGCPVFVTLKPSPAPKGKLGASNDWQLDPAELASKFTPRTKILVLNTPNNPLGKVFSRMELELVANLCQQHDVVCISDEVYQWLVYDGHQHVSIASLPGMWDRTLTIGSAGKSFSATGWKVGWVMGPDNIMKHLRTVHQNSIFHCPTQAQAAVAQCFEREQQHFGQPSSYFLQLPQAMELNRDHMIRSLQSVGLKLWISQGSYFLIADISDFKSKMPDLPGAEDEPYDRRFAKWMIKNMGLVGIPVSTFFSRPHQKDFDHYIRFCFVKDKATLQAMDERLRKWKELQP
As a reminder, the Km is the concentration of substrate that gives half-maximal velocity. In the case of B1, the Km in data set [6] was 369 µM.
